This note sets out measurements from patent US11840533B2, “Pyridinone-based epigenetic modifiers and uses thereof” (THE BOARD OF TRUSTEES OF THE UNIVERSITY OF ILLINOIS, priority 2017, dated 2023).

pIC50: −log10 of the molar value.

One may read the pIC50 as −log10 of the IC50, conventionally taken in molar units. A high value points to a low IC50.

In the experiment the test system is fulvestrant-resistant MCF7:5C-FR cells. Briefly: Fulvestrant-resistant breast cancer cell viability (cell proliferation) assay. Particulars: growth inhibition in fulvestrant-resistant MCF-7:CFR cells, 120 hrs. The format is cell-based. The procedure: For the cell proliferation assay, the fulvestrant-resistant MCF7:5C-FR cells were seeded at about 2000 to about 2500/well in 96-well plates. The next day, compounds were add to the cells at desired serial concentrations form 3 nM to 10 uM. A final 0.1% (v/v) DMSO was used as vehicle control and 1 uM JQ1 was used as positive. The cell were grown in the normal culture condition for 120 hrs. Then the Hoechst 33342 dye were add to each well at a final concentration of 5 μg/ml, and put back to the incubator at 37 C for 90 min. The plates were scanned immediately after the incubation with Celigo (Nexcelcom Biocesnse) for the fluorescence of the nuclear using DAPI channel, and the cell number was counted thought the analysis function of the Celigo software. The normalized cell number to the vehicle control was used to represent the cell proliferation. […] N.D.=Not determined.

The compound `Cn1cc(-c2nc3c(NS(C)(=O)=O)cccc3n2[C@H](c2ccccc2)C2CCOCC2)c2ccnc(O)c21` [Compound 67, (S)-N-(2-(7-hydroxy-1-methyl-1H-pyrrolo[2,3-c]pyridin-3-yl)-1-(phenyl(tetrahydro-2H-pyran-4-yl)methyl)-1H-benzo[d]imidaol-4-yl)methanesulfonamide] showed a pIC50 (120 h) above 6.00. Take `Cn1cc(-c2nc3c(NS(C)(=O)=O)cccc3n2[C@@H](c2ccccc2)C2CCOCC2)c2ccnc(O)c21` [Compound 68, (R)-N-(2-(7-hydroxy-1-methyl-1H-pyrrolo[2,3-c]pyridin-3-yl)-1-(phenyl(tetrahydro-2H-pyran-4-yl)methyl)-1H-benzo[d]imidaol-4-yl)methanesulfonamide]: the pIC50 (120 h) was above 6.00.

`CCS(=O)(=O)Nc1cccc2c1nc(-c1cn(C)c3c(O)nccc13)n2C(C)(c1ccccn1)c1ccccn1` [Compound 69, N-(1-(1,1-di(pyridin-2-yl)ethyl)-2-(7-hydroxy-1-methyl-1H-pyrrolo[2,3-c]pyridin-3-yl)-1H-benzo[d]imidaol-4-yl)ethanesulfonamide] had a negative-log IC50 (pIC50) (120 h) above 6.00. On to `Cn1cc(-c2cc(NS(C)(=O)=O)c3ccn(CC4CC(F)(F)C4)c3c2)c2cc[nH]c(=O)c21` [Compound 73, N-(1-((3,3-difluorocyclobutyl)methyl)-6-(1-methyl-7-oxo-6,7-dihydro-1H-pyrrolo[2,3-c]pyridin-3-yl)-1H-indol-4-yl)methanesulfonamide], for which, where the note is “120 h”, the pIC50 is 7.21.

On to `Cn1cc(-c2cc(NS(C)(=O)=O)c3ccn(CC4(C)COC4)c3c2)c2cc[nH]c(=O)c21` [Compound 74, N-(6-(1-methyl-7-oxo-6,7-dihydro-1H-pyrrolo[2,3-c]pyridin-3-yl)-1-((3-methyloxetan-3-yl)methyl)-1H-indol-4-yl)methanesulfonamide], for which, for the setting “120 h”, the pIC50 was 6.87.

In turn, `CCS(=O)(=O)Nc1cc(-c2cn(C)c3c(=O)[nH]ccc23)cc2c1ccn2C(C)(c1nccn1C)c1nccn1C` [Compound 75, N-(1-(1,1-bis(1-methyl-1H-imidazol-2-yl)ethyl)-6-(7-hydroxy-1-methyl-1H-pyrrolo[2,3-c]pyridin-3-yl)-1H-indol-4-yl)ethanesulfonamide] had a pIC50 (120 h) above 6.00. The compound `CCS(=O)(=O)Nc1cc(-c2cn(C)c3c(=O)[nH]ccc23)cc2c1ccn2C(C)(c1cnccn1)c1cnccn1` [Compound 76, N-(1-(1,1-di(pyrazin-2-yl)ethyl)-6-(7-hydroxy-1-methyl-1H-pyrrolo[2,3-c]pyridin-3-yl)-1H-indol-4-yl)ethanesulfonamide] showed a pIC50 (120 h) above 6.00. `CCN(C(=O)C1COC1)c1cc(-c2cn(C)c3c(=O)[nH]ccc23)cc2c1ccn2Cc1c(C)cccc1C` [Compound 77, N-(1-(2,6-dimethylbenzyl)-6-(7-hydroxy-1-methyl-1H-pyrrolo[2,3-c]pyridin-3-yl)-1H-indol-4-yl)-N-ethyloxetane-3-carboxamide] gave a pIC50 (120 h) below 7.00. Consider `CCC(=O)N(c1cc(-c2cn(C)c3c(=O)[nH]ccc23)cc2c1ccn2Cc1c(C)cccc1Cl)C1CC1` [Compound 78, N-(1-(2-chloro-6-methylbenzyl)-6-(7-hydroxy-1-methyl-1H-pyrrolo[2,3-c]pyridin-3-yl)-1H-indol-4-yl)-N-cyclopropylpropionamide], for which the pIC50 (120 h) is below 7.00. In turn, `CS(=O)(=O)Nc1cc(-c2cn(CCCl)c3c(O)nccc23)cc2c1ccn2Cc1ccc(F)cc1` [Compound 79, N-(6-(1-(2-chloroethyl)-7-hydroxy-1H-pyrrolo[2,3-c]pyridin-3-yl)-1-(4-fluorobenzyl)-1H-indol-4-yl)methanesulfonamide] gave a pIC50 (120 h) below 7.00.

`CCS(=O)(=O)Nc1cc(-c2cn(CCCl)c3c(O)nccc23)cc2c1ccn2Cc1ccc(F)cc1` [Compound 80, N-(6-(1-(2-chloroethyl)-7-hydroxy-1H-pyrrolo[2,3-c]pyridin-3-yl)-1-(4-fluorobenzyl)-1H-indol-4-yl)ethanesulfonamide] showed a pIC50 (120 h) below 7.00.

Compound `CCS(=O)(=O)Nc1cc(-c2cn(CCCl)c3c(O)nccc23)cc2c1ccn2Cc1ccc(F)cc1C` [Compound 81, N-(6-(1-(2-chloroethyl)-7-hydroxy-1H-pyrrolo[2,3-c]pyridin-3-yl)-1-(4-fluoro-2-methylbenzyl)-1H-indol-4-yl)ethanesulfonamide] had a pIC50 (120 h) below 7.00. Regarding `CCS(=O)(=O)Nc1cc(-c2cn(CCCl)c3c(O)nccc23)cc2c1ccn2Cc1ccc(F)cc1Cl` [Compound 82, N-(1-(2-chloro-4-fluorobenzyl)-6-(1-(2-chloroethyl)-7-hydroxy-1H-pyrrolo[2,3-c]pyridin-3-yl)-1H-indol-4-yl)ethanesulfonamide], the pIC50 (120 h) is below 6.00. Same read-out and setting: under `CCS(=O)(=O)Nc1cc(-c2cn(CCCl)c3c(O)nccc23)cc2c1ccn2Cc1c(C)cc(F)cc1C` [Compound 83, N-(6-(1-(2-chloroethyl)-7-hydroxy-1H-pyrrolo[2,3-c]pyridin-3-yl)-1-(4-fluoro-2,6-dimethylbenzyl)-1H-indol-4-yl)ethanesulfonamide] stands below 6.00. Consider `CCS(=O)(=O)Nc1cc(-c2cn(CCCl)c3c(O)nccc23)cc2c1ccn2Cc1c(C)cccc1C` [Compound 84, N-(6-(1-(2-chloroethyl)-7-hydroxy-1H-pyrrolo[2,3-c]pyridin-3-yl)-1-(2,6-dimethylbenzyl)-1H-indol-4-yl)ethanesulfonamide], for which the negative logarithm of the IC50 (pIC50) was above 6.00. The compound `CCS(=O)(=O)Nc1cc(-c2cn(CCCl)c3c(O)nccc23)cc2c1ccn2Cc1ccc(F)cc1F` [Compound 85, N-(6-(1-(2-chloroethyl)-7-hydroxy-1H-pyrrolo[2,3-c]pyridin-3-yl)-1-(2,4-difluorobenzyl)-1H-indol-4-yl)ethanesulfonamide] showed a pIC50 (120 h) above 6.00. Regarding `CCS(=O)(=O)Nc1cc(-c2cn(CCCl)c3c(O)nccc23)cc2c1ccn2Cc1ccc(C#N)cc1` [Compound 86, N-(6-(1-(2-chloroethyl)-7-hydroxy-1H-pyrrolo[2,3-c]pyridin-3-yl)-1-(4-cyanobenzyl)-1H-indol-4-yl)ethanesulfonamide], the pIC50 (120 h) is above 6.00. Under “120 h”, `CCS(=O)(=O)Nc1cc(-c2cn(CCCl)c3c(O)nccc23)cc2c1ccn2Cc1ccc(Cl)c(Cl)c1` [Compound 87, N-(6-(1-(2-chloroethyl)-7-hydroxy-1H-pyrrolo[2,3-c]pyridin-3-yl)-1-(3,4-dichlorobenzyl)-1H-indol-4-yl)ethanesulfonamide] showed a pIC50 above 6.00.

The compound `C=CC(=O)Cn1cc(-c2cc(NS(C)(=O)=O)c3ccn(Cc4ccc(F)cc4)c3c2)c2ccnc(O)c21` [Compound 88, N-(1-(4-fluorobenzyl)-6-(7-hydroxy-1-(2-oxobut-3-en-1-yl)-1H-pyrrolo[2,3-c]pyridin-3-yl)-1H-indol-4-yl)methanesulfonamide] had a pIC50 (120 h) above 6.00. In turn, `CS(=O)(=O)Nc1cc(-c2cn(CC3CO3)c3c(O)nccc23)cc2c1ccn2Cc1ccc(F)cc1` (stereo not drawn) [Compound 89, N-(1-(4-fluorobenzyl)-6-(7-hydroxy-1-(oxiran-2-ylmethyl)-1H-pyrrolo[2,3-c]pyridin-3-yl)-1H-indol-4-yl)methanesulfonamide] showed a pIC50 (120 h) above 6.00. Still for that read-out and setting: under `CS(=O)(=O)Nc1cc(-c2cn(CC(=O)CCl)c3c(O)nccc23)cc2c1ccn2Cc1ccc(F)cc1` [Compound 90, N-(6-(1-(3-chloro-2-oxopropyl)-7-hydroxy-1H-pyrrolo[2,3-c]pyridin-3-yl)-1-(4-fluorobenzyl)-1H-indol-4-yl)methanesulfonamide] stands above 6.00.
